# According to ChEMBL document CHEMBL1201862, “PubChem BioAssay data set” (2004):
# Calls of active or inactive are those of the source.
# Tests used:
# [1] = molecular target: Mitogen-activated protein kinase 10 (Homo sapiens, UniProt P53779); test: Dose response biochemical screening assay for inhibitors of c-Jun N-Terminal Kinase 3 (JNK3). [Related pubchem assays: 746 ]
# [2] = M. tuberculosis H37Rv growth inhibitors, H37Rv strain (AID 1626); format: functional
# [3] = molecular target: T1, Oxysterols receptor LXR-beta (Homo sapiens, UniProt P55055); format: functional, cell-based;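 also: Cell-based luminescence dose-response assay of agonist activity at LXR, run as a confirmatory counterscreen to a daf-12 agonist screen; HEK293 cells with Gal4-LXR fusion and GAL4-driven luciferase reporter; agonist potency from rising luciferase signal of a Gal4-LXR reporter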
# T1 sequence (P55055 whole entry): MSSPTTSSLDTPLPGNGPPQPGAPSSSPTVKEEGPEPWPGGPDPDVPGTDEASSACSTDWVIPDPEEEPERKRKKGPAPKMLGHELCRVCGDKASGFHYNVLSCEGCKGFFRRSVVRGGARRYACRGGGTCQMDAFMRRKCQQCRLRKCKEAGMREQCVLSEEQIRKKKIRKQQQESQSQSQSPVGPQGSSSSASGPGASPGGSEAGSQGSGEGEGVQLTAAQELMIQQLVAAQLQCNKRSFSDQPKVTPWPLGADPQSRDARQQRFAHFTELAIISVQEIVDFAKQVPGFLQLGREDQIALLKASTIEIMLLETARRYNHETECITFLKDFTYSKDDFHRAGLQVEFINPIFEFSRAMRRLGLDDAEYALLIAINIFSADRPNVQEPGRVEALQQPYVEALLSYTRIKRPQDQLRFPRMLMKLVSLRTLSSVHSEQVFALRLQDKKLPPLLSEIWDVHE
# [4] = molecular target: Peroxisome proliferator-activated receptor gamma/Nuclear receptor coactivator 1 (Homo sapiens, UniProt P37231); test: TR-FRET dose response biochemical High Throughput Screening assay for agonists of the steroid receptor coactivator 1 (SRC-1) recruitment by the peroxisome proliferator-activated receptor gamma (PPAR gamma): non-selective agonists. [Related pubchem assays (depositor defined):AID1300, AID1808, AID504735, AID631]; format: protein assay
# Peroxisome proliferator-activated receptor gamma/Nuclear receptor coactivator 1, sequence (P37231 whole entry): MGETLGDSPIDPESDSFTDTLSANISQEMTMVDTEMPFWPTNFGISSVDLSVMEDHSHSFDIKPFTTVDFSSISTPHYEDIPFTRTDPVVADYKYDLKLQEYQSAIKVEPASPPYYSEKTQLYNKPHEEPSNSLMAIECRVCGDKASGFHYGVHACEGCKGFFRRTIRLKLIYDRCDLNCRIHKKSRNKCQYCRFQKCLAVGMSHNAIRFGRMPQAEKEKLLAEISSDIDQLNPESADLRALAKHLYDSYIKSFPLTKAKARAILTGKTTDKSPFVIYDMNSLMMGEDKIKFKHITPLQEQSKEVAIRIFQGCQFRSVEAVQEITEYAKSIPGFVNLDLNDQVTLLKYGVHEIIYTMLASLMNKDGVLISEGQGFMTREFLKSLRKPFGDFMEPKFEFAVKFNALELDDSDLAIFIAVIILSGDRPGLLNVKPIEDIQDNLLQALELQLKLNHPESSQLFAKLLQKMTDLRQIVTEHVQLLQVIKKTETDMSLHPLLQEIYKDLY
# Peroxisome proliferator-activated receptor gamma/Nuclear receptor coactivator 1, sequence (Q15788 whole entry, further chain): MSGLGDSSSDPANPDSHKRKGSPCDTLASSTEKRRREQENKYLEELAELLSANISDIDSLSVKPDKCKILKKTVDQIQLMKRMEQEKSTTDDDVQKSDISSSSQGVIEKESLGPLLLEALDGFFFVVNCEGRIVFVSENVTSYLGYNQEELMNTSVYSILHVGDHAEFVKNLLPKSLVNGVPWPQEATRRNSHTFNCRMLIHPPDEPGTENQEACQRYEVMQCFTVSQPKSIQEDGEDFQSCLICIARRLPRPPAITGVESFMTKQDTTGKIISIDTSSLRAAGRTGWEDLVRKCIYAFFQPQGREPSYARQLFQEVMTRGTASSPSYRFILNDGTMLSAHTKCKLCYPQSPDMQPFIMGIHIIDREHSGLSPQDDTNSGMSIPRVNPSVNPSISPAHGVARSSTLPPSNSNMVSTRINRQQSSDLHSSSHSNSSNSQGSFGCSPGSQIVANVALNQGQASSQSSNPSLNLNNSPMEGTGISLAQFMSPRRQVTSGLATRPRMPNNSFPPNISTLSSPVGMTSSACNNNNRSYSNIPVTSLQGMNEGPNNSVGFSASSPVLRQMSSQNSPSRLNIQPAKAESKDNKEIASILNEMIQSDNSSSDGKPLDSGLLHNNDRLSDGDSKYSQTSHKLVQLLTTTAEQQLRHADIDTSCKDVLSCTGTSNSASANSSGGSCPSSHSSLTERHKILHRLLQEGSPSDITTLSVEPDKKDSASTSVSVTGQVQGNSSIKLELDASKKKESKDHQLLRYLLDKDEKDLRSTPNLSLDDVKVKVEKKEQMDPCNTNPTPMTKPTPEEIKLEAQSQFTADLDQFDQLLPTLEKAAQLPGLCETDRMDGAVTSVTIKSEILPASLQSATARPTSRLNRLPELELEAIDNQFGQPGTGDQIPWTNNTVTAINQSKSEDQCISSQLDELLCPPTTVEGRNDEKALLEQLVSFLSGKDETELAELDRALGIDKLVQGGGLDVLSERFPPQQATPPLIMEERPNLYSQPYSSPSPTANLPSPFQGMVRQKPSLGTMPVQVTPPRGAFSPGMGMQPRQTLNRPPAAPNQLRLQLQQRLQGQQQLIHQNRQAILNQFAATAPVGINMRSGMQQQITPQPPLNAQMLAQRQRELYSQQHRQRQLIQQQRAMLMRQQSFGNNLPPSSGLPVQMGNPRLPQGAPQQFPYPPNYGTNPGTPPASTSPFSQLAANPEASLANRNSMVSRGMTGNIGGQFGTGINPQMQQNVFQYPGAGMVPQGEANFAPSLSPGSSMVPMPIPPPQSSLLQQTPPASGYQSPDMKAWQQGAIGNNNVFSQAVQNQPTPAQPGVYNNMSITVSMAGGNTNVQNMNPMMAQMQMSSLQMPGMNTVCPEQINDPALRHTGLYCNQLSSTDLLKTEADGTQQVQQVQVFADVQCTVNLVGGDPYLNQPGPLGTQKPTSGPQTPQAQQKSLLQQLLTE
# [5] = Luminescence-based dose response cell-based high throughput screening assay for cytotoxic compounds using the IEC-6 intestinal epithelial cell line. [Related pubchem assays: 1858 (Summary AID.), 1825 (Counterscreen.), 1907 (Confirmation screen.)]; format: functional
# HT-1080 = test: HT1080 cell viability loss – fluorescence readout (AID 620); format: functional, cell-based; conditions: Homo sapiens
# [6] = molecular target: Peroxisome proliferator-activated receptor gamma/Nuclear receptor coactivator 2 (Homo sapiens, UniProt P37231); test: (§1) TR-FRET dose response biochemical High Throughput Screening assay for agonists of the steroid receptor coactivator 2 (SRC-2) recruitment by the peroxisome proliferator-activated receptor gamma (PPAR gamma): non-selective agonists. [Related pubchem assays: 1297, 1032 ]; format: functional
# [7] = molecular target: Peroxisome proliferator-activated receptor gamma/Nuclear receptor coactivator 3 (Homo sapiens, UniProt P37231); test: as §1, with “3 (SRC-3)” for “2 (SRC-2)”, “1301 (Confirmation screen.), 1048 (Primary screen.)]” for “1297, 1032 ]”; format: functional
# [8] = molecular target: Luciferin 4-monooxygenase (Photinus pyralis, UniProt P08659); test: Counter Screen for Luciferase-based Assay Positives. [Related pubchem assays: 620, 618, 411 ]
# Luciferin 4-monooxygenase, sequence (P08659 whole entry): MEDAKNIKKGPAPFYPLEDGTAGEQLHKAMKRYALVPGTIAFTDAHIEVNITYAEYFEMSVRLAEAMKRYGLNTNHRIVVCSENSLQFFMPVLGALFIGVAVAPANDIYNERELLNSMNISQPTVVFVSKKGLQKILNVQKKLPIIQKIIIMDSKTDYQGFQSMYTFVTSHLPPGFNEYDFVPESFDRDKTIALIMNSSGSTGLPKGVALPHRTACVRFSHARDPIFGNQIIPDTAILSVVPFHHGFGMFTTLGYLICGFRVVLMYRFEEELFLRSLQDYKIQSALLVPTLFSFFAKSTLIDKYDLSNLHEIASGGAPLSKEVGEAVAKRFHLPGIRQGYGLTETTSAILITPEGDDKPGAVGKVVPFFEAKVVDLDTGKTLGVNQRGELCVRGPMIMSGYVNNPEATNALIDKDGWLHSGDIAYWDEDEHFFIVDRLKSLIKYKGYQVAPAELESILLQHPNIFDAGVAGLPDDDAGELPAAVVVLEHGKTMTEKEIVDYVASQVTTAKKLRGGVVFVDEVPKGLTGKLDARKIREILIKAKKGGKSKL
# [9] = molecular target: RNA-editing ligase 1, mitochondrial (Trypanosoma brucei brucei, UniProt P86926); test: inhibition of trypanosome RNA editing ligase – biochemical, fluorescence, Trypanosoma brucei, dose response (AID 1117295); format: functional
# RNA-editing ligase 1, mitochondrial, sequence (P86926 whole entry): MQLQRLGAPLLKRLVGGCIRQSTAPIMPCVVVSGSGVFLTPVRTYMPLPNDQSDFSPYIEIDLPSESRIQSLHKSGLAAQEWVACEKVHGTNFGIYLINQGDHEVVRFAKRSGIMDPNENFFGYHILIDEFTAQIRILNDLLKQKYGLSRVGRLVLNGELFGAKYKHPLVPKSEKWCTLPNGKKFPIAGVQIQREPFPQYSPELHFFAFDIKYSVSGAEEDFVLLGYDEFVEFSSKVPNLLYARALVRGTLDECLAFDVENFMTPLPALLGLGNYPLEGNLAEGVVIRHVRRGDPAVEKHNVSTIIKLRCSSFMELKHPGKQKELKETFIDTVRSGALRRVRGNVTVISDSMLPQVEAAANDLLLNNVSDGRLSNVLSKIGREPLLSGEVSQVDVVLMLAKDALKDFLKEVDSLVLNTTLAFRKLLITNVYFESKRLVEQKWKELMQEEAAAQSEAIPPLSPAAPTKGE
# Genome polyprotein = Genome polyprotein (Hepatitis C virus, UniProt Q2Q167); test: disruption of hepatitis C core self-association – biochemical, TR-FRET, dose response (AID 2159); design: species or system Hepacivirus hominis;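 also: blocks dimerization of HCV core protein measured by TR-FRET between tagged core106 pairs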
# Genome polyprotein, sequence (Q2Q167 whole entry): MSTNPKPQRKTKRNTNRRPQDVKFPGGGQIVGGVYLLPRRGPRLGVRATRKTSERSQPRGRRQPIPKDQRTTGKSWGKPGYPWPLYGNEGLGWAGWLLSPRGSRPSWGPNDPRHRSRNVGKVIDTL
# Kallikrein-7 = Kallikrein-7 (Homo sapiens, UniProt P49862); test: Fluorescence Intensity-based biochemical primary high throughput dose response assay to identify activators of kallikrein-7 (K7) zymogen.
# Kallikrein-7, sequence (P49862 whole entry): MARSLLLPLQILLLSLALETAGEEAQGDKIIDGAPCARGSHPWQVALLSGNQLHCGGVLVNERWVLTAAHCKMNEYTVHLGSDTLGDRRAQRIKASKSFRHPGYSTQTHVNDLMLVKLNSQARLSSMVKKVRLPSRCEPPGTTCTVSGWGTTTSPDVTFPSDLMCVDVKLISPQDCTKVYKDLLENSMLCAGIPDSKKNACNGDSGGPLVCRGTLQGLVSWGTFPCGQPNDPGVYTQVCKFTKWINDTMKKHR
# Protein skinhead-1 = molecular target: T2, Protein skinhead-1 (Caenorhabditis elegans, UniProt P34707); format: functional
# T2 sequence (P34707 whole entry): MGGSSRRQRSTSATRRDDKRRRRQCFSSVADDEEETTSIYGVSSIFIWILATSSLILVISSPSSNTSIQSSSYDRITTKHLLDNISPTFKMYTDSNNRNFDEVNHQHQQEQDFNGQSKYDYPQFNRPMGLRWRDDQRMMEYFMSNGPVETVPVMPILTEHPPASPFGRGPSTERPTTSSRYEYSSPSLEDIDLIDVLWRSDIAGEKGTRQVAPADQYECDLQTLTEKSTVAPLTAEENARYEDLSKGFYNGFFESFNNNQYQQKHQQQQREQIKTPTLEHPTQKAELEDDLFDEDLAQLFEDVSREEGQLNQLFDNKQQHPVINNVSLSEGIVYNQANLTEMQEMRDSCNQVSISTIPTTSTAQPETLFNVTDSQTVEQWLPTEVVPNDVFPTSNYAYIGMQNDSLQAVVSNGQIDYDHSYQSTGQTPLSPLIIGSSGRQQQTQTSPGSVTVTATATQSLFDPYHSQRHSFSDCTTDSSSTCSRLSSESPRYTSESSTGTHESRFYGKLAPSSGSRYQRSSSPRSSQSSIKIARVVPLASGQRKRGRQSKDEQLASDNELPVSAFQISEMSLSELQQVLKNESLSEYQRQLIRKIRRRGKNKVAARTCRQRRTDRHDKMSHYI
# [10] = reduced cellular PGC1a acetyl-lysine signal – cell-based, cherry-picked samples, dose response (AID 720514); format: functional;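 also: potency may reflect raised or lowered acetylation signal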
# Mitogen-activated protein kinase 10, sequence (P53779 whole entry): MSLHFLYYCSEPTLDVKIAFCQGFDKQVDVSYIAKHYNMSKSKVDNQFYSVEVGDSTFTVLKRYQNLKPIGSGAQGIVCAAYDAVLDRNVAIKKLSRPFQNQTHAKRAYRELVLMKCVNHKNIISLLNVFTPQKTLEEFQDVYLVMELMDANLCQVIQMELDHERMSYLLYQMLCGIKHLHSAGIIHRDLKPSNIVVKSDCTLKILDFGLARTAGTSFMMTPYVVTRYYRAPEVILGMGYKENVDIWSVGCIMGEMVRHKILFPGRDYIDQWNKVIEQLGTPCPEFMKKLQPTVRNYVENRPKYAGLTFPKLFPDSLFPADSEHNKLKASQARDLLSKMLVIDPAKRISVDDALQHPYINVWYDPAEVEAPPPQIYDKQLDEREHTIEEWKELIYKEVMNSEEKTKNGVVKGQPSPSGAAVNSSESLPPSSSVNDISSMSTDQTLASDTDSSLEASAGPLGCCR
structure (smiles),measurement,setting,value
COc1cccc(NC(=O)CCCn2c(=O)[nH]c3ccccc3c2=O)c1,IC50,[1],48.1 µM (not active)
CCOc1ccc(N2C(=O)c3ccc(C(=O)OCC(=O)N(CC)C4CCS(=O)(=O)C4)cc3C2=O)cc1 (stereo unspecified),IC50,[2],> 100 µM (active)
O=c1c2ccccc2cnn1-c1ccc(Cl)cc1,EC50,cells,> 67.5 µM (inactive)
same,EC50,[3],> 67.5 µM (inactive)
CN1/C(=C\C=C\C2=[N+](C)c3ccc4ccccc4c3C2(C)C)C(C)(C)c2ccccc21.[O-][Cl+3]([O-])([O-])[O-],EC50,[4],13.4 µM (inactive)
same,IC50,[5],0.761 µM (active)
same,EC50,HT-1080,> 50 µM (not active)
same,EC50,[6],8.19 µM (active)
same,EC50,[7],> 79.4 µM (not active)
same,EC50,[8],7.77 µM (active)
Sc1nnc(-c2ccc(Br)cc2)n1-c1ccccc1.[Zn+2],IC50,[9],20.2 µM (inactive)
CCCCC(=O)Nc1ncc(Br)s1,IC50,[1],54.9 µM (not active)
Sc1nncn2c1cc1oc3ccccc3c12,IC50,Genome polyprotein,> 49.8 µM (not active)
CCC(NC(=O)Cc1c(C)c2c(cc(C)c3c(C)c(C)oc32)oc1=O)C(=O)O (stereo unspecified),EC50,Kallikrein-7,> 69.5 µM (inactive)
O=C(C=Cc1ccccc1)CC(c1ccccc1)N1CCOCC1 (stereo unspecified),IC50,Protein skinhead-1,10.9 µM (active)
same,AC50,[10],10.7 µM (active)
